pKi: −log10 of the molar value. Read-outs that look alike come from different tables or passages of the source.
What was measured:
CYP1A2 = target: T1, CYP1A2 (Homo sapiens, UniProt P05177); test: Interaction with Cytochrome P450 isoenzymes: CYP1A2; format: in vitro ADME; settings: Supersomes expressing human CYP1A2, substrate CEC, fluorometric; read-out: CYP450 interaction (IC50, uM) 1A2
T1 construct: purchased Gentest Corporation, Woburn, MA (Supersomes); host or cells: baculovirus-insect cells
T1 sequence (P05177 1-516): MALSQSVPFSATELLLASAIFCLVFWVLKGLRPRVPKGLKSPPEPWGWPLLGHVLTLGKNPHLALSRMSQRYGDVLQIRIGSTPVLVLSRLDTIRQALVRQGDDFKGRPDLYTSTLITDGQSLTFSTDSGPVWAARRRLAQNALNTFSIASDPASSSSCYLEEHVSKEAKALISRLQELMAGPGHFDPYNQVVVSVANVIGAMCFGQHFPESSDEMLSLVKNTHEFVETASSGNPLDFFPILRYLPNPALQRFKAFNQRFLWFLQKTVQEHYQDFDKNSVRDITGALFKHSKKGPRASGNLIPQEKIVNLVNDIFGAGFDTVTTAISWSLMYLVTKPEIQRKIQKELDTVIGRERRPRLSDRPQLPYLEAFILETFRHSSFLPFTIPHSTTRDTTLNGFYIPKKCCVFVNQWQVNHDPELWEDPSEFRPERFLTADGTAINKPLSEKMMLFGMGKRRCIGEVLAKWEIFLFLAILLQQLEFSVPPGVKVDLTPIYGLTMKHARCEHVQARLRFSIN
Method: (§1) The assay was performed in a 96-well microtiter plates as described in Stresser et al., Drug Metab. Dispos. 28, 1440 (2000). Microsomes from baculovirus-insect cells (Supersomes, Gentest Corporation, Woburn, MA) expressing human cytochrome P450 isoforms (CYP1A2, CYP2C9, CYP2C19, CYP2D6 and CYP3A4) were utilized. Test compounds or standard inhibitors (dissolved in DMSO or acetonitrile) were serially diluted in a solution containing 16.3 uM NADP^+, 0.83 mM glucose-6-phosphate, 0.83 mM MgCl2, 0.4 U/mL of glucose-6-phosphate dehydrogenase and 0.1 mg/mL microsomal protein prepared from wild-type baculovirus-infected insect cells. Appropriate control wells without inhibitor and without microsomes were also added. The plates were then pre-warmed at 37°C for 10 min, and the reaction was started by adding pre-warmed enzyme/substrate mix (cytochrome P450 isoforms with their specific substrates in a 0.35 M potassium phosphate buffer at pH 7.4). Specific substrates were 3-cyano-7-ethoxycoumarin (CEC) for CYP1A2 and CYP2C19, 7-methoxy-4-trifluoromethylcoumarin (MFC) or dibenzylfluorescein (DBF) for CYP2C9, 3-[2-(N,N-diethyl-N-methylamino)ethyl]-7-methoxy-4-methylcoumarin (AMMC) for CYP2D6 and 7-benzyloxy-4-(trifluoromethyl)-coumarin (BFC) for CYP3A4. Reaction was terminated at various times, depending on the assays, by addition of a 4:1 acetonitrile:0.5 M Tris base solution. Known inhibitors for each isoenzyme (furafylline for CYP1A2, sulfaphenazole for CYP2C9, tranylcypromine for CYP2C19, quinidine for CYP2D6 and ketoconazole for CYP3A4) were tested in all assays as positive controls. Plates were read on a fluorometer (Fluoroskan Ascent, ThermoElectron Corporation, Helsinki, Finland) at the appropriate emission/excitation wavelengths. Median inhibitory concentration (IC50) was determined by nonlinear regression (GraFit software, Erithacus Software, Horley, UK).

CYP2C9 = target: T2, CYP2C9 (Homo sapiens, UniProt P11712); test: Interaction with Cytochrome P450 isoenzymes: CYP2C9; format: in vitro ADME; settings: Supersomes expressing human CYP2C9, substrate MFC or DBF, fluorometric; read-out: CYP450 interaction (IC50, uM) 2C9
T2 construct: purchased Gentest Corporation, Woburn, MA (Supersomes); host or cells: baculovirus-insect cells
T2 sequence (P11712 whole entry): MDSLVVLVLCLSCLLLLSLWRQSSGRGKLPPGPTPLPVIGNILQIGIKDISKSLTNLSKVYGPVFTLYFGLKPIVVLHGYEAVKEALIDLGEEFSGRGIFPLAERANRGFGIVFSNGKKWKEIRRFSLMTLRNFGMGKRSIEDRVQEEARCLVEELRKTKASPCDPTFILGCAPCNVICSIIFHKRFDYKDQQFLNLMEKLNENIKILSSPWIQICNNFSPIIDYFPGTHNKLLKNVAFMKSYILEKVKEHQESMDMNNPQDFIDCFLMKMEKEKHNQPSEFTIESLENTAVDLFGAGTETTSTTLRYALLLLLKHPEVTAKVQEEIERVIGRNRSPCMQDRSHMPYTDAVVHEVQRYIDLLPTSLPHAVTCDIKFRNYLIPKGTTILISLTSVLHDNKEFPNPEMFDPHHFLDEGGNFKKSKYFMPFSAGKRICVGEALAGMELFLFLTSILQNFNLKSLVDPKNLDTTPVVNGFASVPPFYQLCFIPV
Method: as §1

CYP2C19 = target: T3, CYP2C19 (Homo sapiens, UniProt P33261); test: Interaction with Cytochrome P450 isoenzymes: CYP2C19; format: in vitro ADME; settings: Supersomes expressing human CYP2C19, substrate CEC, fluorometric; read-out: CYP450 interaction (IC50, uM) 2C19
T3 construct: purchased Gentest Corporation, Woburn, MA (Supersomes); host or cells: baculovirus-insect cells
T3 sequence (P33261 whole entry): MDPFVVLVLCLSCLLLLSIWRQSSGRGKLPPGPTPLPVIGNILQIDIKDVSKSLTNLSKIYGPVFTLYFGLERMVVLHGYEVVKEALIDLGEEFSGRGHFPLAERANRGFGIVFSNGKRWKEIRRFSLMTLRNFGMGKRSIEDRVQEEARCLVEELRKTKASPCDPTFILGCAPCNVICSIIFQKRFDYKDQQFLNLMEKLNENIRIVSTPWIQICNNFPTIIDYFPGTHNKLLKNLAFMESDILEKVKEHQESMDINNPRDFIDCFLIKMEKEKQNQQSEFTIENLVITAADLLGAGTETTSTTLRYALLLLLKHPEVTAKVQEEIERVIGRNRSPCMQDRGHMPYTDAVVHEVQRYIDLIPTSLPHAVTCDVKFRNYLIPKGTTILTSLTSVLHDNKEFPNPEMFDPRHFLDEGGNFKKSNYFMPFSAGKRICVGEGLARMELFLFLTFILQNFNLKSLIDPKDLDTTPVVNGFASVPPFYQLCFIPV
Method: as §1

CYP2D6 = target: T4, CYP2D6 (Homo sapiens, UniProt P10635); test: Interaction with Cytochrome P450 isoenzymes: CYP2D6; format: in vitro ADME; settings: Supersomes expressing human CYP2D6, substrate AMMC, fluorometric; read-out: CYP450 interaction (IC50, uM) 2D6
T4 construct: purchased Gentest Corporation, Woburn, MA (Supersomes); host or cells: baculovirus-insect cells
T4 sequence (P10635 whole entry): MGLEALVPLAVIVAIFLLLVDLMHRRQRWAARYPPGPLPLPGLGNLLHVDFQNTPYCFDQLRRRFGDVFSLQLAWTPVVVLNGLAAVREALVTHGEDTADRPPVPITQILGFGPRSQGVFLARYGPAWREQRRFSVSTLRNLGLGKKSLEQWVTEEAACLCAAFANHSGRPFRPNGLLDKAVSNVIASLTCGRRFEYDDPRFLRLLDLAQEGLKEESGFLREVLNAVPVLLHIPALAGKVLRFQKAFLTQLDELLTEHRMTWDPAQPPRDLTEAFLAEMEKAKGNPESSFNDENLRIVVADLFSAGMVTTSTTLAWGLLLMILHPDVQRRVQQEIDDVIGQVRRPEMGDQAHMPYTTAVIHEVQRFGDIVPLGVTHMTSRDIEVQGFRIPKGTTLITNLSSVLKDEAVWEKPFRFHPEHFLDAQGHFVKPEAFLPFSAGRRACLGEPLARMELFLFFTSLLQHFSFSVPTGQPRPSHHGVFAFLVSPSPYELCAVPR
Method: as §1

CYP3A4 = target: T5, CYP3A4 (Homo sapiens, UniProt P08684); test: Interaction with Cytochrome P450 isoenzymes: CYP3A4; format: in vitro ADME; settings: Supersomes expressing human CYP3A4, substrate BFC, fluorometric; read-out: CYP450 interaction (IC50, uM) 3A4
T5 construct: purchased Gentest Corporation, Woburn, MA (Supersomes); host or cells: baculovirus-insect cells
T5 sequence (P08684 whole entry): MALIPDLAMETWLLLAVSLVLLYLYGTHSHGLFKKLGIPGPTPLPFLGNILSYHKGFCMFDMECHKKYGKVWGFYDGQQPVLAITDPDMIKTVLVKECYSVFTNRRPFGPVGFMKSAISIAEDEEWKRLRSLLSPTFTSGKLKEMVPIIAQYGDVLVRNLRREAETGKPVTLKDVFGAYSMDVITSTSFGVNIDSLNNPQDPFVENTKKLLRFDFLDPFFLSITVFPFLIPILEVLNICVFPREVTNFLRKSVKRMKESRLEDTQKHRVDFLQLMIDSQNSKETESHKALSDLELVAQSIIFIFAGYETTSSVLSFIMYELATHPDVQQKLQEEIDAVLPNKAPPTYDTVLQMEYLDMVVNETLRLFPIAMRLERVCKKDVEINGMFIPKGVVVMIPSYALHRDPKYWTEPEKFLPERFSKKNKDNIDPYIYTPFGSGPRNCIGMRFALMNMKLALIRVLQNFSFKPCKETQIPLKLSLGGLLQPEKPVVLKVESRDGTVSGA
Method: as §1

ORL-1 receptor = ORL-1 receptor (Homo sapiens, UniProt P41146); test: ORL-1 receptor binding studies, radioligand [3H]-AcRYYRWK-NH2
Chain of ORL-1 receptor (P41146 whole entry): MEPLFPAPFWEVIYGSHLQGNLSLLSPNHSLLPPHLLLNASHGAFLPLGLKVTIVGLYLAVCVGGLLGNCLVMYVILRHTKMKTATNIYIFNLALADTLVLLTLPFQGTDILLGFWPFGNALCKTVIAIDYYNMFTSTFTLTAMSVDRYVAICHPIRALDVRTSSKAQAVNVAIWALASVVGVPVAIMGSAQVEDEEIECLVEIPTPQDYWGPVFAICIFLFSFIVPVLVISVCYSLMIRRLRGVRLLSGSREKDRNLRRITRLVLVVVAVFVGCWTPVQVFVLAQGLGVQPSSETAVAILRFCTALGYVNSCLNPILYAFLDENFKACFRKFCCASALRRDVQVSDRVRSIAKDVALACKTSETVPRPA
Method: The receptor binding studies were carried out on 96-well plates; the incubation medium was Tris HCl pH 7.4 (4°C) containing MgCl2 (5 mM), EGTA (0.2 mM), BSA (0.1 %), with a final volume of […], using as radioligand [^3H]-AcRYYRWK-NH2 (Amersham, 103 Ci/mmol). The samples were incubated at 37°C for 120 min. and were then filtered off via Whatman GF/B filters pre-treated with 0.2% polyethylenimine. The filters were washed three times with Tris HCl buffer pH 7.4 (4°C). The radioactivity present on the filters was measured using a Packard Top Count microplate scintillation counter.

[1] = radioligand [3H]-AcRYYRWK-NH2, 37°C, 120 min, read-out: ORL-1 Binding affinity (Ki)

IC50 (CYP1A2)	IC50 (CYP2C9)	IC50 (CYP2C19)	IC50 (CYP2D6)	IC50 (CYP3A4)	pKi (ORL-1 receptor; [1])	Structure (SMILES)	pKi (ORL-1 receptor)
> 100 µM	> 100 µM	> 100 µM	5.1 µM	98.2 µM	7.47	O=C(c1[nH]c2ccccc2c1CN1CCC(c2c(F)cccc2F)CC1)N1CCN(CCOCCO)CC1 [Example 6, {3-[4-(2,6-Difluoro-phenyl)-piperidin-1-ylmethyl]-1H-indol-2-yl}-{4-[2-(2-hydroxy-ethoxy)-ethyl]-piperazin-1-yl}-methanone]	
86 µM	31.2 µM	70.1 µM	6.2 µM	25.6 µM		NC(=O)Cn1c(C(=O)N2CCOCC2)c(CN2CCC(c3c(F)cccc3F)CC2)c2ccccc21 [Example 8, 2-[3-[4-(2,6-Difluoro-phenyl)-piperidin-1-ylmethyl]-2-(morpholine-4-carbonyl)-indol-1-yl]-acetamide]	
> 100 µM	20.2 µM	25.1 µM	16.8 µM	13.3 µM	8.32	NC(=O)Cn1c(C(=O)N2CCOCC2)c(CN2CCC(c3c(F)cccc3Cl)CC2)c2ccccc21 [Example 7, 2-[3-[4-(2-Chloro-6-fluoro-phenyl)-piperidin-1-ylmethyl]-2-(morpholine-4-carbonyl)-indol-1-yl]-acetamide]	
> 100 µM	> 100 µM	> 100 µM	36.6 µM	18.2 µM	8.55	O=C(Cn1c(-c2ccccc2)c(CN2CCC(c3c(F)cccc3Cl)CC2)c2ccccc21)N1CCOCC1 [Example 12, 2-{3-[4-(2-Chloro-6-fluoro-phenyl)-piperidin-1-ylmethyl]-2-phenyl-indol-1-y}-1-morpholin-4-yl-ethanone]	
> 100 µM	74.4 µM	38.3 µM	34.7 µM	6.2 µM	8.09	CN1CCN(C(=O)Cn2c(-c3ccccc3)c(CN3CCC(c4c(F)cccc4F)CC3)c3ccccc32)CC1 [Example 15, 2-{3-[4-(2,6-Difluoro-phenyl)-piperidin-1-ylmethyl]-2-phenyl-indol-1-yl}-1-(4-methyl-piperazin-1-yl)-ethanone]	
> 100 µM	25.9 µM	47.5 µM	8.6 µM	54.7 µM	8.38	CC(=O)N(C)C1CCN(C(=O)c2[nH]c3ccccc3c2CN2CCC(c3c(F)cccc3Cl)CC2)C1 (stereo not shown) [Example 3, N-(1-{3-[4-(2-Chloro-6-fluoro-phenyl)-piperidin-1-ylmethyl]-1 H-indole-2-carbonyl}-pyrrolidin-3-yl)-N-methyl-acetamide]	

Structure (SMILES)	IC50 (CYP1A2)	IC50 (CYP2C9)	IC50 (CYP2C19)	IC50 (CYP2D6)	IC50 (CYP3A4)	pKi (ORL-1 receptor; [1])	pKi (ORL-1 receptor)
Fc1cccc(F)c1C1CCN(Cc2c(-c3ccccc3)[nH]c3ccccc23)CC1 [53 (W02005005411), reference compound]	11.8 µM	10.7 µM	17.4 µM	< 0.1 µM	13 µM		
O=C(Cn1c(-c2ccccc2)c(CN2CCC(c3c(F)cccc3F)CC2)c2ccccc21)N1CCOCC1 [Example 13, 2-{3-[4-(2,6-Difluoro-phenyl)-piperidin-1-ylmethyl]-2-phenyl-indol-1-yl}-l-morpholin-4-yl-ethanone]	> 100 µM	98.6 µM	62.6 µM	94.6 µM	38.1 µM		7.74
Cc1c(CN2CCC(c3c(F)cccc3Cl)CC2)c2ccccc2n1CC(=O)NC1CCN(C)CC1 [Example 11, 2-{3-[4-(2-Chloro-6-fluoro-phenyl)-piperidin-1-ylmethyl]-2-methyl-indol-1-yl}-N-(1-methyl-piperidin-4-yl)-acetamide]	> 100 µM	> 100 µM	47.4 µM	20.7 µM	9.6 µM		8.26

— patent EP1873150A1, “Fluorinated indoleamides useful as ligands of the ORL-1 receptor” (NIKEM RESEARCH S.R.L., priority 2006, dated 2008)
